Test results: patent US20080160059A1, “ANTIBIOTIC/ANTIMYCOTIC PREPARATION AND USE IN PLANTS” (priority 2006, published 2008)
Where a name gives a salt, the structure may show the parent alone.

Tested on: Burkholderia andropogonis
Test: Absorbent disc test on a bacterial lawn on agar (kill zone)
Format: cell-based
Details: intermediate concentration tested; absorbent discs on bacterial lawn
Excerpt: To determine the sensitivity of Burkholderia andropogonis, a stock was applied to commercially prepared agar-containing Petri dishes to provide dishes containing a lawn of bacteria. Then, absorbent discs containing a mixture of oxytetracycline hydrochloride and copper oxychloride, and each of the active ingredients separately, oxytetracycline hydrochloride alone and copper oxychloride alone were placed onto the bacterial lawn. The concentrations of the individual active agents in the discs were the same as that for each found in the combination. The combination and the individual actives were tested at three different concentrations. Each concentration was run in triplicate.
An analogous commercially available system for making routine determinations of bacterial and fungal sensitivity also was used.
The toxicity at each concentration was far greater than the sum of the toxicities of each active agent alone, for example, at the intermediate concentration tested, the bacteria kill zone for oxytetracycline was 3.3 mm in diameter; for copper oxychloride, the zone was 2 mm in diameter; but for the combination, the kill zone was 15 mm in diameter.

[Cl-].[Cu+2].[Cu+2].[OH-].[OH-].[OH-] [copper oxychloride]
bacteria kill zone in diameter: 2 mm

CN(C)[C@@H]1C(O)=C(C(N)=O)C(=O)[C@@]2(O)C(O)=C3C(=O)c4c(O)cccc4[C@@](C)(O)[C@H]3[C@H](O)[C@@H]12 [oxytetracycline hydrochloride]
bacteria kill zone in diameter: 3.3 mm
